Earlier results on two compounds are cited in patent US20190151634A1, “TREATMENT OF EXCESSIVE MENSTRUAL BLOOD LOSS BY FEMININE SANITARY PRODUCTS MEDICATED WITH HEMOSTATIC AGENT” (ARSTAT, INC., priority 2011, published 2019).

The conditions of series [1]: mouthwash, compared to placebo.
For series [2] the following is noted: oral, 6 g/day (EMEA review).
For series [3] the following is noted: locally administered, without detectable plasma drug levels.
[4] abbreviates: after administration of an oral tablet.

Regarding `NC[C@H]1CC[C@H](C(=O)O)CC1` [tranexamic acid], for the setting “after a mouth rinse”, the plasma concentrations entry is recorded as “below 2 mcg/mL”; the “saliva concentrations, maximum level” value is on record as “above 200 mcg/mL”; the “time saliva concentration remained at a therapeutic level” value is “more than two hours”. Also, under setting [4], the “drug in saliva samples” value was “not detected” and the “mean drug plasma concentrations” value was 7 µg/mL. The “incidence of postoperative bleeding complications” value in series [1] was “reduce the incidence of postoperative bleeding complications”. In addition, the “risk of gastrointestinal adverse events” value in series [2] is “increased”.
Turning to aprotinin, the postoperative blood loss entry in series [3] is given as “Reduction of the postoperative blood loss”.
